Columns and labels:
[1] = target: T1, Human VR2 (Homo sapiens, UniProt Q9Y5S1); assay: Whole-cell patch-clamp of VR2 transiently expressed in HEK293 cells; assay type: cell-based
T1 construct: expressed in transfected cells; host or cells: Xenopus oocytes injected with cRNA
T1 sequence (Q9Y5S1 1-764): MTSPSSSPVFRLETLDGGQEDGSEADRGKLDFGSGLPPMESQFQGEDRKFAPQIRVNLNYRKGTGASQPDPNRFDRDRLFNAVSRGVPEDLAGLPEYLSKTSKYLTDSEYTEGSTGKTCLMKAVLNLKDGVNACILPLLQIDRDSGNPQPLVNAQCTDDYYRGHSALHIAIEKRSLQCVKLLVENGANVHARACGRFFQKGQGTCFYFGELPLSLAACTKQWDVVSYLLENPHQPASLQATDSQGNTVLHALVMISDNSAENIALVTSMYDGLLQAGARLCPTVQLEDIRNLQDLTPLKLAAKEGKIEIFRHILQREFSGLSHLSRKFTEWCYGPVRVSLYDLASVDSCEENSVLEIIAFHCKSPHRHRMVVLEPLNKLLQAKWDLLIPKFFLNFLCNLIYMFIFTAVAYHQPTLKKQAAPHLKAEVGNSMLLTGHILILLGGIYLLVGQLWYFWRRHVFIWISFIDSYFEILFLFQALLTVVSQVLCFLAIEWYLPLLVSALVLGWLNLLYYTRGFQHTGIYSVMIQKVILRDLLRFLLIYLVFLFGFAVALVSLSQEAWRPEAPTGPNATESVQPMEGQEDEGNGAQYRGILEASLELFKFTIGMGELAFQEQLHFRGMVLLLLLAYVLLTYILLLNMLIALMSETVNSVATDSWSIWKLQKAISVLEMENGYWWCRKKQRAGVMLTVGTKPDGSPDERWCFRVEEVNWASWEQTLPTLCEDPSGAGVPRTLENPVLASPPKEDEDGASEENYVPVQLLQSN
Description: Human VR2 was functionally characterized in both HEK293 cells and Xenopus oocytes using electrophysiological methods. VR2 (in the pcDNA3.1 vector purchased by Invitrogen) was transiently expressed in HEK293 cells (ATCC) and recordings were performed 48 hours after transfection of cells using the whole-cell patch-clamp method (described in Bertil Hille, Ionin Channels of excitable membranes, 1992; Hammill et al. (1981) Pluger Arch. 391:85-100).

[2] = target: T1, Human VR2; assay: Two-electrode voltage-clamp of VR2 in Xenopus oocytes; assay type: cell-based; details: heat stimulation (48-50° C.), 1-10 μM concentration
Description: For the oocyte studies, human VR2 was subcloned into an oocyte expression vector containing 5′- and 3′-UTR of Xenopus β-globin (Chiara et al. (1999) Biochemistry 38(20)6689-6698). In vitro trasncription was carried out as described in Chiara et al. (supra) and cRNA (10-100 ng) was then injected into the oocytes. VR2 function was characterized in the oocytes 48 hours after cRNA injection using a standard two-electrode voltage-clamp.

[3] = target: T2, human VR1 (Homo sapiens, UniProt Q8NER1, A11T/S41P/T469I); assay: Binding of [3H]-resiniferatoxin to membranes isolated from HEK293 cell homogenates (VR1); details: 0.1-10 nM concentration
T2 construct: expressed in transfected cells; host or cells: HEK293 cells (membranes)
T2 sequence (Q8NER1 whole entry A11T/S41P/T469I): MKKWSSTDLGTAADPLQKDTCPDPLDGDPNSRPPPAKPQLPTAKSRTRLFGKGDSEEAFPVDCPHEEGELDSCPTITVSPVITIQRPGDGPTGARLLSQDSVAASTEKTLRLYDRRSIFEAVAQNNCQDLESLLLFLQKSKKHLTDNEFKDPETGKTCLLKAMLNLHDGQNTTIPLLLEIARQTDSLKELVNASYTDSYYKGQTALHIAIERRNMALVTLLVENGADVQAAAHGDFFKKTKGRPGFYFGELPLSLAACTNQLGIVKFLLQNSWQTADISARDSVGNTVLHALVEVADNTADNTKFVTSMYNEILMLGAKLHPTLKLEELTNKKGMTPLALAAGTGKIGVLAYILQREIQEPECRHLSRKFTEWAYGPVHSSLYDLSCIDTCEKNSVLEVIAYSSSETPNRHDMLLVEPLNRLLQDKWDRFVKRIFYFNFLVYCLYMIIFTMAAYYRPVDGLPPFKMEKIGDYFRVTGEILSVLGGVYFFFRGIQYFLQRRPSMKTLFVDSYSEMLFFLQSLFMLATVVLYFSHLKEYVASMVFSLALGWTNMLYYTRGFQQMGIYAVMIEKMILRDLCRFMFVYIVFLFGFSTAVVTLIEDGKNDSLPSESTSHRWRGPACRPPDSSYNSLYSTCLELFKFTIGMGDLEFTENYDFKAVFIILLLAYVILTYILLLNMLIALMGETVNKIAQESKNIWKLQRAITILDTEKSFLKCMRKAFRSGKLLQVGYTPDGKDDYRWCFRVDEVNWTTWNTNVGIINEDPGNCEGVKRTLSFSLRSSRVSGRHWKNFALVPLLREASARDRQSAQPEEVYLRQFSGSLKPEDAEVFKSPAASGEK

[4] = target: T1, Human VR2; assay: Binding of [3H]-resiniferatoxin to membranes isolated from HEK293 cell homogenates (VR2); details: 0.1-10 nM concentration

## COc1cc(CNC(=O)CCCC/C=C/C(C)C)ccc1O [Capsaicin, capsaicin]
[1]; 1-10 μM concentration
  induction of currents from VR2: do not induce any currents

## Oc1cc2c(cc1O)CN(C(=S)NCCc1ccc(Cl)cc1)CCC2 [capsazepin, capsazepine]
[1]; heat stimulation (>50° C.), 10 μM concentration
  block of heat-evoked currents of VR2: reversibly blocked
[2]
  block of the heat response of VR2: blocks the heat response of VR2 reversibly

## C=C(C)[C@]12C[C@@H](C)[C@@]34O[C@](Cc5ccccc5)(O[C@@H]1[C@@H]3C=C(COC(=O)Cc1ccc(O)c(OC)c1)C[C@]1(O)C(=O)C(C)=C[C@@H]41)O2 [resiniferatoxin]
[1]; 0.1-3 μM concentration
  induction of currents from VR2: do not induce any currents
[3]
  binding to human VR1: high affinities
[4]
  specific binding to VR2: no specific binding
